Assay results as given in the supplement of paper PMC11208160.

Experiment: recombinant UMI read abundance after kanamycin selection (control-corrected) (log10(CPM+1)); higher = more efficient recombination; extreme values may be limits of the assay; sequences stand for … in AGTGCAGAGAAAATCGGCCAGTTTTCTCTGCCTGCAGTCCGCATGCCGTGGGACCCCTTGGGTTCTAACCTGTTGCCTAGATTTATGCAGCGGACTGCCTTTCTCCCAAAGTGATAAACCGG…AGGTTGGTTTCACT; site = the 11-nt donor
Procedure, shortened: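 Counts of recombinant UMIs were reported as log10(CPM+1). Before that, they were converted to CPM, averaged over replicates and scaled using control-derived factors. They came from PCR across the donor–target junction after Escherichia coli carrying the pair library and target plasmid was plated on IPTG (0.07 mM) plus kanamycin, or unselected, in two replicates each.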
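Also: IS621 bridge recombinase in Escherichia coli cells against a fixed T5 target plasmid.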

Row | Sequence | recombinant UMI read abundance (log10)
1 | CCAAGTGCATGGACCGGTTTTCCCGGTAATCCGTATTTGAT (site CCATGTGCTAT) | 0
2 | ACACGTCCATGGACCGGTTTTCCCGGTAATCCGTATTTGAC (site ACACTTCCTGT) | 0
3 | CGGGAGTCATGGACCGGTTTTCCCGGTAATCCGTATTTGCG (site CGGGAGTCTGG) | 0
4 | GACAGGGCATGGACCGGTTTTCCCGGTAATCCGTATTTGAT (site GACAGGGCTAT) | 1.89
5 | GGAGTATCATGGACCGGTTTTCCCGGTAATCCGTATTTGAC (site CTAGTATCTGT) | 0
6 | TCATACTCATGGACCGGTTTTCCCGGTAATCCGTATTTGCA (site ACATACTCTTG) | 1.34
7 | AATCACGCATGGACCGGTTTTCCCGGTAATCCGTATTTGGG (site AACCACGCTCC) | 0.0334
8 | CTGGAAACATGGACCGGTTTTCCCGGTAATCCGTATTTGCT (site CTGGAAACTAG) | 2.45
9 | CGGACAACATGGACCGGTTTTCCCGGTAATCCGTATTTGCT (site CGGACAACTAG) | 1.89
10 | ATAGGCCCATGGACCGGTTTTCCCGGTAATCCGTATTTGAA (site ATAGGCCCTTT) | 0.215
11 | TCGAGTCCATGGACCGGTTTTCCCGGTAATCCGTATTTGGC (site TCGAGTCCTGC) | 0
12 | TTCGCTGCATGGACCGGTTTTCCCGGTAATCCGTATTTGTA (site TTCGCTGCTTA) | 0.369
13 | AGTCTACCATGGACCGGTTTTCCCGGTAATCCGTATTTGCT (site AGTCTACCTAG) | 0
14 | TATGCGGCATGGACCGGTTTTCCCGGTAATCCGTATTTGCT (site TCTGCGGCTAG) | 0.00356
15 | GACTATACATGGACCGGTTTTCCCGGTAATCCGTATTTGGG (site GACTATACTCC) | 0.588
16 | GAGCTGCCATGGACCGGTTTTCCCGGTAATCCGTATTTGCG (site GAGCTGCCTCG) | 0.232
17 | CAAGTGACATGGACCGGTTTTCCCGGTAATCCGTATTTGGG (site CAAGTGACTCC) | 0.246
18 | GCCACGCCATGGACCGGTTTTCCCGGTAATCCGTATTTGTA (site GCCACGACTTA) | 0.00736
19 | GGGGCACCATGGACCGGTTTTCCCGGTAATCCGTATTTGCA (site GGGCCACCTTG) | 0.00389
20 | AGCTCAGCATGGACCGGTTTTCCCGGTAATCCGTATTTGTG (site AGCTCAGCTCC) | 0.00732
21 | TATGCGGCATGGACCGGTTTTCCCGGTAATCCGTATTTGCT (site TATGCGGCTAG) | 0.532
22 | TTAGCTGCATGGACCGGTTTTCCCGGTAATCCGTATTTGTA (site TTAGCTGCTGA) | 0
23 | TCGCAGCCATGGACCGGTTTTCCCGGTAATCCGTATTTGGA (site AAAGTCTCTCG) | 0
24 | GTGCATGCATGGACCGGTTTTCCCGGTAATCCGTATTTGGT (site GGGCATGCTAC) | 0.00487
25 | GCCACGCCATGGACCGGTTTTCCCGGTAATCCGTATTTGTA (site GTCACGCCTTA) | 0.00531

Row | Sequence | recombinant UMI read abundance (log10)
26 | ATCCAGGCATGGACCGGTTTTCCCGGTAATCCGTATTTGTG (site ATCCAGGCTCA) | 0.328
27 | TCGAGCGCATGGACCGGTTTTCCCGGTAATCCGTATTTGCT (site TCGAGCGCTAG) | 1.5
28 | CTACCAACATGGACCGGTTTTCCCGGTAATCCGTATTTGGA (site CTACTAACTTC) | 0.0192
29 | CAAGTCACATGGACCGGTTTTCCCGGTAATCCGTATTTGAG (site CAAGTCACTCC) | 0.563
30 | CAGAACCCATGGACCGGTTTTCCCGGTAATCCGTATTTGAG (site CAGAACCCTCT) | 1.35
31 | TCTGAGACATGGACCGGTTTTCCCGGTAATCCGTATTTGCG (site TCGGAGACTCG) | 0.285
32 | TGGCCGTCATGGACCGGTTTTCCCGGTAATCCGTATTTGAG (site TGGCCGTCTCT) | 0.297
33 | ACACGTCCATGGACCGGTTTTCCCGGTAATCCGTATTTGAC (site ACACCTCCTGT) | 0
34 | CTAGTATCATGGACCGGTTTTCCCGGTAATCCGTATTTGTG (site CTAGTATCTGT) | 0
35 | AACTATTCATGGACCGGTTTTCCCGGTAATCCGTATTTGTA (site AACTATTCTTA) | 2.2
36 | AAGCACGCATGGACCGGTTTTCCCGGTAATCCGTATTTGGG (site AAGCCCGCTCC) | 0.0231
37 | CATTTGGCATGGACCGGTTTTCCCGGTAATCCGTATTTGTG (site GATTTGGCTCA) | 0.00627
38 | TGTACACCATGGACCGGTTTTCCCGGTAATCCGTATTTGAC (site TGTACACCTAT) | 0.0116
39 | AAACTAACATGGACCGGTTTTCCCGGTAATCCGTATTTGCA (site AAACTAACTTG) | 2.27
40 | TGTTGCCCATGGACCGGTTTTCCCGGTAATCCGTATTTGTA (site TGTTGCCCTTA) | 0.0196
41 | CCAAGTGCATGGACCGGTTTTCCCGGTAATCCGTATTTGAT (site CCACGTGCTAT) | 0.00443
42 | ACTAGTACATGGACCGGTTTTCCCGGTAATCCGTATTTGGT (site ACTAGTGCTAC) | 0.181
43 | TAGCCTTCATGGACCGGTTTTCCCGGTAATCCGTATTTGGT (site TAGCCTTCTCC) | 0.0356
44 | GGTGCACCATGGACCGGTTTTCCCGGTAATCCGTATTTGCA (site GGTGCACCTTG) | 0
45 | TAGCCTTCATGGACCGGTTTTCCCGGTAATCCGTATTTGGT (site TAGCCGTCTAC) | 0.0151
46 | CAATGTTCATGGACCGGTTTTCCCGGTAATCCGTATTTGAA (site CAATGATCTTT) | 0.287
47 | AGCTAGGCATGGACCGGTTTTCCCGGTAATCCGTATTTGGT (site AGCTAGGCTAC) | 0.659
48 | ATGTAGGCATGGACCGGTTTTCCCGGTAATCCGTATTTGGC (site GTGTAGGCTGC) | 0.716
49 | CACGGCCCATGGACCGGTTTTCCCGGTAATCCGTATTTGTC (site CACGGCCCTGA) | 1.59
50 | GCCACGCCATGGACCGGTTTTCCCGGTAATCCGTATTTGTA (site GCCACACCTTA) | 0.00375

Row | Sequence | recombinant UMI read abundance (log10)
51 | GGTTAGTCATGGACCGGTTTTCCCGGTAATCCGTATTTGCC (site GGTTAGTCTGG) | 2.06
52 | GGGAATCCATGGACCGGTTTTCCCGGTAATCCGTATTTGTT (site AGGAATCCTAA) | 0
53 | GTTTGAACATGGACCGGTTTTCCCGGTAATCCGTATTTGGC (site GTTAGAACTGC) | 0
54 | GCGCAGCCATGGACCGGTTTTCCCGGTAATCCGTATTTGGG (site GCGGAGCCTCC) | 0.0138
55 | TAGCAATCATGGACCGGTTTTCCCGGTAATCCGTATTTGCG (site TAGGAATCTCG) | 0
56 | TCCAATTCATGGACCGGTTTTCCCGGTAATCCGTATTTGCC (site ACCAATTCTGG) | 0
57 | CGGGAGTCATGGACCGGTTTTCCCGGTAATCCGTATTTGGC (site CGGGAGTCTGG) | 0.911
58 | CCTTTACCATGGACCGGTTTTCCCGGTAATCCGTATTTGCC (site AGACCGTCTCT) | 0.00566
59 | CACTCCTCATGGACCGGTTTTCCCGGTAATCCGTATTTGTC (site CACTCCTCTGA) | 3.16
60 | ACTAGTACATGGACCGGTTTTCCCGGTAATCCGTATTTGGT (site ACTAGTCCTAC) | 0.00589
61 | TCAGACACATGGACCGGTTTTCCCGGTAATCCGTATTTGCG (site TCAGATACTCG) | 0.946
62 | ACTAGAACATGGACCGGTTTTCCCGGTAATCCGTATTTGCG (site ACTAGAACTCT) | 0.412
63 | TTAGATGCATGGACCGGTTTTCCCGGTAATCCGTATTTGTG (site TTAGGTGCTCA) | 0.00706
64 | GCAGTAACATGGACCGGTTTTCCCGGTAATCCGTATTTGCA (site ACAGTATCTTG) | 0.498
65 | GCCCGTACATGGACCGGTTTTCCCGGTAATCCGTATTTGCT (site GCCCGTACTAG) | 2.32
66 | AGAGTGGCATGGACCGGTTTTCCCGGTAATCCGTATTTGGT (site CGAGTGGCTAC) | 0.973
67 | CCCAGCACATGGACCGGTTTTCCCGGTAATCCGTATTTGAA (site CCCAGCACTTT) | 0.515
68 | ACACCATCATGGACCGGTTTTCCCGGTAATCCGTATTTGCA (site ACACCATCTTG) | 2.8
69 | AGCTCTGCATGGACCGGTTTTCCCGGTAATCCGTATTTGGG (site AGCTCTGCTCC) | 0.25
70 | AATCAATCATGGACCGGTTTTCCCGGTAATCCGTATTTGCC (site AATCAATCTGG) | 1.98
71 | CCGGGGCCATGGACCGGTTTTCCCGGTAATCCGTATTTGAT (site CCGGGGCCTAT) | 0.04
72 | TGCTAGGCATGGACCGGTTTTCCCGGTAATCCGTATTTGGT (site TGCTAGACTAC) | 0.0977
73 | TACTGGACATGGACCGGTTTTCCCGGTAATCCGTATTTGCT (site TACTGGACTAG) | 2.01
74 | GTTGTTCCATGGACCGGTTTTCCCGGTAATCCGTATTTGGA (site GTTGTTCCTTC) | 0.0132
75 | CCGCTAGCATGGACCGGTTTTCCCGGTAATCCGTATTTGTG (site CCGCTAGCTCA) | 0.337
